{"source": "patent US10076540B1", "about": "“Medication enhancement using hydrogen” (Perricone Hydrogen Water Company, LLC, priority 2017, dated 2018)", "test": "Time until the effects of THC are felt after ingestion of a hydrogen-containing composition (uptake rate)", "format": "in vivo", "conditions": "human subject; drunk composition of liquid such as water, dissolved hydrogen and THC", "source_text": "In some embodiments, the composition comprising hydrogen and an active pharmaceutical agent may have an uptake rate that is at least 2, at least 3, at least 5, at least 10, at least 20, at least 30, or at least 50 times the uptake rate of the active pharmaceutical agent alone by a subject. In certain embodiments, composition comprising hydrogen and an active pharmaceutical agent may have an uptake rate that is less than or equal to 100, less than or equal to 50, less than or equal to 30, less than or equal to 20, less than or equal to 10, less than or equal to 5, or less than or equal to 3 times the uptake rate of the active pharmaceutical agent alone by the subject. Combinations of the above-referenced ranges are also possible (e.g., at least 2 or less than or equal to 100 times). Other ranges are also possible. The uptake rate of a composition (or active pharmaceutical agent) may be determined by administering the composition (or active pharmaceutical agent) to a subject and determining the amount of time required to observe a pharmacological effect (e.g., a psychotropic effect, a reduction in disease and/or clinical symptom) of the active pharmaceutical agent on the subject.\nA composition such as described herein is provided to a subject, such as a human subject. […]"}
{"smiles": "CCCCCc1cc(O)c2c(c1)OC(C)(C)[C@@H]1CCC(C)=C[C@@H]21", "note": "[THC, tetrahydrocannabinol]", "values": [{"measurement": "time after ingestion until the effects of the THC are felt by the subject", "value": "less than 5 minutes"}]}
